Assay results published in patent US20170226072A1, “1,4-Disubstituted Piperidines, 1,4-Disubstituted Piperazines, 1,4-Disubstituted Diazepines, and 1,3-Disubstituted Pyrrolidine Compounds” (University of Kentucky Research Foundation, priority 2013, published 2017).
Where “and” joins values, the source holds several entries; their conditions need not be identical. Identical values can stand only once.

Legend:
VMAT2 [1] = target: T1, VMAT2 (Rattus norvegicus, UniProt Q01827); assay: [3H]Dopamine ([3H]DA) uptake assay, vesicular preparation; assay type: biochemical
T1 construct: conducted using isolated synaptic vesicle preparations; from tissue; host or cells: rat striatum, isolated synaptic vesicles

hERG channel = target: T2, hERG channel (Homo sapiens, UniProt Q12809); assay: [3H]Dofetilide binding assay, HEK-293 cell membrane preparation; conditions: HEK-293 cell membranes expressing hERG, 5 nM [3H]dofetilide; read-out: hERG [3H]Dofetilide Binding Inhibition Mean ± SEM (IC50)
T2 construct: expressed in transfected cells
Method: [^3H]Dofetilide Binding Assay, HEK-293 Cell Membrane Preparation
[^3H]Dofetilide binding assays were conducted using commercially available HEK-293 cell membranes which stably express the hERG channel. Membranes were suspended in assay buffer (50 mM Tris, 10 mM KCl, 1 mM MgCl2, pH 7.4) prior to the experiment. Assays were performed in duplicate in a total volume of 250 μL. Aliquots of the HEK-293 cell membrane suspension which contained 5 μg membrane protein were added to tubes containing assay buffer, 5 nM [^3H]dofetilide and a range of concentrations of analog (10 nM-100 μM). Nonspecific binding was determined in the presence of amitriptyline (1 mM). Samples were incubated for 1 hr. at 24° C., followed by rapid filtration. Radioactivity retained by the filters was determined by liquid scintillation spectrometry as described above for the [^3H]DA uptake assay. The affinity for the [^3H]dofetilide binding site on the hERG channel expressed in the HEK-293 cellular membrane was determined from the analog concentration response curves.

VMAT2 [2] = target: T1, VMAT2; assay: [3H]Dihydrotetrabenazine ([3H]DTBZ) binding assay, vesicular preparation; conditions: rat brain synaptic vesicles, 3 nM [3H]DTBZ; read-out: Inhibition of [3H]DTBZ binding (Ki) VMAT2
[3] = target: T3, dopamine transporter (DAT) (Rattus norvegicus, UniProt P23977); assay: [3H]DA uptake assay, striatal synaptosomal preparation; assay type: biochemical; conditions: rat striatal synaptosomes; read-out: DAT [3H]DA Uptake Inhibition Mean ± SEM (Ki)
T3 construct: from tissue; host or cells: rat striatum, synaptosomes
Method: [^3H]DA and [^3H]5-HT Uptake Assay, Synaptosomal Preparation
[^3H]DA and [^3H]5-HT uptake into striatal synaptosomes was determined to evaluate compound inhibition of the dopamine transporter (DAT) and the serotonin transporter (SERT), respectively. […] Homogenates were centrifuged at 2000 g for 10 min at 4° C., and resulting supernatants were centrifuged at 20,000 g for 17 min at 4° C. […] Assays were performed in duplicate in a total volume of 500 (for DAT assays) or 250 μL (for SERT assays). […] Reactions were terminated by addition of 3 mL of ice-cold assay buffer and subsequent filtration and radioactivity retained by the filters was determined by liquid scintillation spectrometry (Tri-Carb 2100TR liquid scintillation analyzer; PerkinElmer Life and Analytical Sciences, Boston, Mass.).

[4] = rat striatal synaptic vesicles, 0.1 μM [3H]DA, read-out: [3H]DA Uptake (Ki) VMAT2
[5] = synaptic vesicle preparations, summary of Table 1, read-out: inhibition of [3H]DA uptake, Ki

T1 sequence (Q01827 whole entry): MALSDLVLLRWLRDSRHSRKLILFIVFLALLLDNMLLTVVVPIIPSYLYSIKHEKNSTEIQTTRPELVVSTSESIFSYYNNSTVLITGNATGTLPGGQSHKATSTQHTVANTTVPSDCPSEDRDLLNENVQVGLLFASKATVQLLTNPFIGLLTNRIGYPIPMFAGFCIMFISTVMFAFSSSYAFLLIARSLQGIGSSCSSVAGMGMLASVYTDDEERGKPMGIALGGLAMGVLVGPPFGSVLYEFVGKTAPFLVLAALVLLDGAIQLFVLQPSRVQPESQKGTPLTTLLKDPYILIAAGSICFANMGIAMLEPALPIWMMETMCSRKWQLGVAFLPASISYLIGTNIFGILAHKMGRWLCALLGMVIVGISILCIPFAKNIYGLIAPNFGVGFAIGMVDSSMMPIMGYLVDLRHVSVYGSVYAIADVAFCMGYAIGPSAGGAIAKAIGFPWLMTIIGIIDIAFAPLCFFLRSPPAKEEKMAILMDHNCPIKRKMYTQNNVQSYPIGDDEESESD
T2 sequence (Q12809 whole entry): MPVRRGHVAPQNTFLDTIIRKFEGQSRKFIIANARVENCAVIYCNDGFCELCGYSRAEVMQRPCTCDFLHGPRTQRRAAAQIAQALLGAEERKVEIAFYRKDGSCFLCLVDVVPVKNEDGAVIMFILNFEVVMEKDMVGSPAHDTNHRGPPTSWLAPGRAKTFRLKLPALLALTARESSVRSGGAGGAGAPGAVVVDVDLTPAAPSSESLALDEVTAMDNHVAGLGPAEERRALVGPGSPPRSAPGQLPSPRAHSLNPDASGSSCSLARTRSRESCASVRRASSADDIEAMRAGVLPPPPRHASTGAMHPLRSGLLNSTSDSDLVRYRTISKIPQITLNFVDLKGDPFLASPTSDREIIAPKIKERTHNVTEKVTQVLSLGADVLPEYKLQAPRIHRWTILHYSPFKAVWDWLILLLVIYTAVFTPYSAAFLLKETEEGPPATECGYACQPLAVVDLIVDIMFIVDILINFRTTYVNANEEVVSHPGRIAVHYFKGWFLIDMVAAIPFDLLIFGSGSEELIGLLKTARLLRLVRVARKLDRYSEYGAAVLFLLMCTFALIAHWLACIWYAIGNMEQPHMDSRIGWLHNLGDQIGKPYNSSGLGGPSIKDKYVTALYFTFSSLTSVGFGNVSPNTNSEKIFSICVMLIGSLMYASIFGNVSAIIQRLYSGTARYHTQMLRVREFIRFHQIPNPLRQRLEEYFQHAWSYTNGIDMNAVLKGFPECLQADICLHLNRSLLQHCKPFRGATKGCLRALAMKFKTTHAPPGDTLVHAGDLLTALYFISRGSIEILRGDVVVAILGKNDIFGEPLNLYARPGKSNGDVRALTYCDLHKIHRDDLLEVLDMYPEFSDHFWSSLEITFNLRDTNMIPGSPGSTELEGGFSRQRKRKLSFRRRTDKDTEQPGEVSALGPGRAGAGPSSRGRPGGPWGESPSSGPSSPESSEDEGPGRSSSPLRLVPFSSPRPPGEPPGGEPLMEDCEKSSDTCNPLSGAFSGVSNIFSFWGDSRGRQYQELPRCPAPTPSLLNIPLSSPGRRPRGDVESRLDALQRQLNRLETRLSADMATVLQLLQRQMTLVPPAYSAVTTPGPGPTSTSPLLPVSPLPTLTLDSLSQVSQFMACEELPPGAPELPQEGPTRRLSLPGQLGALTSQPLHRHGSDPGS
T3 sequence (P23977 whole entry): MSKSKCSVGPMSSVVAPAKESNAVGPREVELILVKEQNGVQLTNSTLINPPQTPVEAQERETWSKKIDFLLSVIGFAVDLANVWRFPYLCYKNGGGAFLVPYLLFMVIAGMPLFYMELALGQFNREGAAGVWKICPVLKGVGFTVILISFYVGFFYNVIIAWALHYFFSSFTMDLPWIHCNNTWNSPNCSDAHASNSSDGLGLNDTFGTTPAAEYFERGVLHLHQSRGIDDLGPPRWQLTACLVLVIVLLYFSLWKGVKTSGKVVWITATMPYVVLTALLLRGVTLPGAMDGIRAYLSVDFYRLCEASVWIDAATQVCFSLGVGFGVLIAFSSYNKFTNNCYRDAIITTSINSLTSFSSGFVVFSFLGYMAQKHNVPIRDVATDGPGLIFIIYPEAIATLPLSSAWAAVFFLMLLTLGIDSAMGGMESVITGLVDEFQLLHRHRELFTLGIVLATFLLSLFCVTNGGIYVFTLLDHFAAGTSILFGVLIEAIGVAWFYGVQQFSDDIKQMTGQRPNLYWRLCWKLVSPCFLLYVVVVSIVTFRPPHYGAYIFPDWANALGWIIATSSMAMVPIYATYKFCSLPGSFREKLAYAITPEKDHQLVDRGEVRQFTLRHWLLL

Row | Ki (VMAT2 [1]; [4]) [nM] | Ki (VMAT2 [2]) | Ki [3] [nM] | Compound | IC50 (hERG channel) [nM] | Ki (VMAT2 [1]; [5]) [nM]
1 | 94 ± 9.6 | 380 ± 49 nM | 5460 ± 120 | COc1cc(OC)c(OC)cc1CCC1CCN(CCc2ccccc2)CC1 [Compound 9] | 8100 ± 585 | 
2 | 53 ± 5.5 | 530 ± 110 nM |  | Fc1ccc(CCC2CCN(CCc3ccccc3)CC2)c(F)c1 [Compound 30] | 552 ± 99.1 | 
3 | 41 ± 12 | 350 ± 48 nM |  | COc1ccccc1CCN1CCC(CCc2ccc(F)cc2F)CC1 [Compound 31] | 317 ± 24.8 | 
4 | 29 ± 5.5 | 270 ± 15 nM |  | COc1cccc(CCN2CCC(CCc3ccc(F)cc3F)CC2)c1 [Compound 32] | 327 ± 35.3 | 
5 | 70 ± 5.1 | 1300 ± 170 nM |  | COc1ccc(CCN2CCC(CCc3ccc(F)cc3F)CC2)cc1 [Compound 33] | 1070 ± 152 | 
6 | 110 ± 19 | 240 ± 38 nM |  | Fc1ccc(CCC2CCN(CCc3ccccc3Cl)CC2)c(F)c1 [Compound 34] |  | 
7 | 43 ± 14 | 1450 ± 240 nM |  | Fc1ccc(CCN2CCC(CCc3ccc(F)cc3F)CC2)cc1 [Compound 35] | 201 ± 32.7 | 
8 | 120 ± 8.5 | 290 ± 64 nM |  | COc1ccc(CCC2CCN(CCc3ccccc3)CC2)c(F)c1 [Compound 36] |  | 
9 | 76 ± 10 | 330 ± 18 nM |  | COc1ccc(CCC2CCN(CCc3ccccc3OC)CC2)c(F)c1 [Compound 37] | 2870 ± 760 | 
10 | 83 ± 3.8 | 190 ± 9 nM | 2940 ± 270 | COc1cccc(CCN2CCC(CCc3ccc(OC)cc3F)CC2)c1 [Compound 38, 4-(2-fluoro-4-methoxyphenethyl)-1-(3-methoxyphenethyl)piperidine] | 479 ± 64.3 | 
11 | 44 ± 3.3 | 1610 ± 78 nM |  | COc1ccc(CCN2CCC(CCc3ccc(OC)cc3F)CC2)cc1 [Compound 39] | 299 ± 45.9 | 
12 | 67 ± 21 | 230 ± 15 nM |  | COc1ccc(CCC2CCN(CCc3ccccc3Cl)CC2)c(F)c1 [Compound 40] | 1410 ± 166 | 
13 | 60 ± 8.2 | 600 ± 75 nM | 3480 ± 415 | COc1ccc(CCC2CCN(CCc3ccc(F)cc3)CC2)c(F)c1 [Compound 41] | 3600 ± 1220 | 
14 | 51 ± 3.5 | 1100 ± 87 nM |  | Fc1cc(F)cc(CCC2CCN(CCc3ccccc3)CC2)c1 [Compound 42] | 258 | 
15 | 34 ± 3.9 | 410 ± 38 nM |  | COc1ccccc1CCN1CCC(CCc2cc(F)cc(F)c2)CC1 [Compound 43] | 427 ± 134 | 
16 | 28 ± 2.7 | 250 ± 3 nM | 1910 ± 568 | COc1cccc(CCN2CCC(CCc3cc(F)cc(F)c3)CC2)c1 [Compound 44] | 477 ± 42.9 | 

Row | Ki (VMAT2 [1]; [4]) [nM] | Ki (VMAT2 [2]) | Ki [3] [nM] | Compound | IC50 (hERG channel) [nM] | Ki (VMAT2 [1]; [5]) [nM]
17 | 120 ± 28 | 2030 ± 130 nM |  | COc1ccc(CCN2CCC(CCc3cc(F)cc(F)c3)CC2)cc1 [Compound 45] |  | 
18 | 180 ± 68 | 660 ± 58 nM |  | Fc1cc(F)cc(CCC2CCN(CCc3ccccc3Cl)CC2)c1 [Compound 46] |  | 
19 | 68 ± 16 | 1430 ± 280 nM |  | Fc1ccc(CCN2CCC(CCc3cc(F)cc(F)c3)CC2)cc1 [Compound 47] | 440 ± 41.2 | 
20 | 190 ± 63 | 21700 ± 2080 nM |  | c1ccc(CCC2CCN(Cc3ccccc3)CC2)cc1 [Compound 48] |  | 
21 | 70 ± 7.5 | 9360 ± 1320 nM |  | COc1ccccc1CN1CCC(CCc2ccccc2)CC1 [Compound 49] | 568 ± 122 | 
22 | 190 ± 20 | 12700 ± 4280 nM |  | COc1cccc(CN2CCC(CCc3ccccc3)CC2)c1 [Compound 50] |  | 
23 | 250 ± 27 | 6230 ± 560 nM |  | COc1ccc(CN2CCC(CCc3ccccc3)CC2)cc1 [Compound 51] |  | 
24 | 270 ± 42 | 44500 ± 17800 nM |  | Clc1ccccc1CN1CCC(CCc2ccccc2)CC1 [Compound 52] |  | 
25 | 210 ± 12 | 10100 ± 580 nM |  | Fc1ccc(CN2CCC(CCc3ccccc3)CC2)cc1 [Compound 53] |  | 
26 | 190 ± 17 | 3170 ± 550 nM |  | c1ccc(CCN2CCCN(CCc3ccccc3)CC2)cc1 [Compound 65] |  | 
27 | 190 ± 26 | 2020 ± 110 nM |  | COc1ccccc1CCN1CCCN(CCc2ccccc2OC)CC1 [Compound 66] |  | 
28 | 100 ± 10 | 2240 ± 530 nM |  | COc1cccc(CCN2CCCN(CCc3cccc(OC)c3)CC2)c1 [Compound 67] | 1120 ± 85.7 | 
29 | 250 ± 15 | 2880 ± 250 nM |  | COc1ccc(CCN2CCCN(CCc3ccc(OC)cc3)CC2)cc1 [Compound 68] |  | 
30 | 170 ± 25 | 930 ± 21 nM |  | Clc1ccccc1CCN1CCCN(CCc2ccccc2Cl)CC1 [Compound 69] |  | 
31 | 85 ± 5.2 | 5050 ± 770 nM |  | Fc1ccc(CCN2CCCN(CCc3ccc(F)cc3)CC2)cc1 [Compound 70] | 57 ± 2.7 | 

Row | Compound | Ki (VMAT2 [1]; [4]) [nM] | Ki (VMAT2 [2]) | Ki [3] [nM] | IC50 (hERG channel) [nM] | Ki (VMAT2 [1]; [5]) [nM]
32 | COc1ccccc1CCN1CCC(CCc2ccccc2)CC1 [Compound 1, 1-(2-methoxyphenethyl)-4-phenethylpiperidine] | 30 ± 2 | 255 ± 26 nM |  | 534 ± 142 | 
33 | COc1ccc(CCN2CCC(CCc3ccccc3)CC2)cc1OC [Compound 3] | 56 ± 9 | 2800 ± 110 nM |  | 402 ± 72.7 | 
34 | COc1ccc(CCN2CCC(CCc3ccccc3)CC2)cc1 [Compound 4] | 46 ± 3.7 | 1620 ± 190 nM |  | 622 ± 215 | 
35 | COc1ccccc1CCN1CCC(Cc2ccccc2)CC1 [Compound 5] | 130 ± 15 | 2760 ± 310 nM |  |  | 
36 | COc1cccc(CCN2CCC(Cc3ccccc3)CC2)c1 [Compound 6] | 77 ± 9.8 | 1530 ± 100 nM |  | 442 ± 221 | 
37 | COc1ccc(CCN2CCC(Cc3ccccc3)CC2)cc1OC [Compound 7] | 240 ± 34 | 2990 ± 170 nM |  |  | 
38 | COc1ccc(CCN2CCC(Cc3ccccc3)CC2)cc1 [Compound 8] | 180 ± 11 | 1940 ± 430 nM |  |  | 
39 | Clc1ccccc1CCN1CCC(CCc2ccccc2)CC1 [Compound 10] | 47 ± 6.3 | 380 ± 5.8 nM |  | 666 ± 26.5 | 
40 | Fc1ccc(CCN2CCC(CCc3ccccc3)CC2)cc1 [Compound 11] | 32 ± 3.8 | 1820 ± 79 nM |  | 353 ± 36 | 
41 | COc1cccc(CCC2CCN(CCc3ccccc3)CC2)c1 [Compound 14] | 56 ± 8.6 | 320 ± 15 nM |  | 631 ± 88.8 | 
42 | COc1cccc(CCC2CCN(CCc3ccccc3OC)CC2)c1 [Compound 15] | 40 ± 7.5 | 320 ± 55 nM |  | 790 ± 64.1 | 
43 | COc1cccc(CCC2CCN(CCc3cccc(OC)c3)CC2)c1 [Compound 16] | 85 ± 10 | 230 ± 19 nM |  | 564 ± 131 | 
44 | COc1ccc(CCN2CCC(CCc3cccc(OC)c3)CC2)cc1 [Compound 17] | 130 ± 23 | 450 ± 130 nM |  | 600 ± 87.8 | 
45 | COc1cccc(CCC2CCN(CCc3ccccc3Cl)CC2)c1 [Compound 18] | 420 ± 49 | 460 ± 98 nM |  |  | 
46 | COc1cccc(CCC2CCN(CCc3ccc(F)cc3)CC2)c1 [Compound 19] | 69 ± 4 | 960 ± 47 nM |  | 409 ± 42.9 | 
47 | COc1ccc(CCC2CCN(CCc3ccccc3)CC2)cc1 [Compound 20] | 110 ± 7 | 510 ± 87 nM |  |  | 
48 | COc1ccc(CCC2CCN(CCc3ccccc3OC)CC2)cc1 [Compound 21] | 83 ± 9 | 420 ± 19 nM |  | 323 ± 96.4 | 
49 | COc1ccc(CCC2CCN(CCc3cccc(OC)c3)CC2)cc1 [Compound 22] | 75 ± 4 | 230 ± 47 nM |  | 479 ± 228 | 
50 | COc1ccc(CCC2CCN(CCc3ccc(OC)cc3)CC2)cc1 [Compound 23] | 160 ± 12 | 2470 ± 270 nM |  |  | 
51 | COc1ccc(CCC2CCN(CCc3ccc(F)cc3)CC2)cc1 [Compound 25] | 60 ± 5 | 470 ± 67 nM |  | 1420 ± 384 | 
52 | COc1cccc(CCN2CCC(CCc3ccccc3OC)CC2)c1 [Compound 26, 1-(3-methoxyphenethyl)-4-(2-methoxyphenethyl)piperidine] | 13 ± 1.5 | 150 to 190 nM and 150 nM |  | 607 ± 25.5 | 9 to 20
53 | COc1ccc(CCN2CCC(CCc3ccccc3OC)CC2)cc1 [Compound 27] | 43 ± 2.8 | 500 ± 100 nM |  | 479 ± 109 | 
54 | COc1ccccc1CCC1CCN(CCc2ccccc2Cl)CC1 [Compound 28, 1-(2-chlorophenethyl)-4-(2-methoxyphenethyl)piperidine] | 20 ± 3 | 190 ± 20 nM | 1250 ± 307 | 1190 ± 181 | 9 to 20
55 | COc1ccc(CCN2CCN(CCc3ccc(OC)cc3)CC2)cc1 [Compound 57] | 410 ± 5 | 6630 ± 840 nM |  |  | 
56 | Clc1ccccc1CCN1CCN(CCc2ccccc2)CC1 [Compound 63] | 63 ± 6.9 | 1590 ± 260 nM | 10400 ± 1850 | 2840 ± 287 | 
